Results taken from patent US20190359681A1, “NOVEL MINOR HISTOCOMPATIBILITY ANTIGENS AND USES THEREOF” (UNIVERSITÉ DE MONTRÉAL, priority 2015, published 2019).

Each substance was assayed on T cells from MiHA-negative individuals (assay: Immunogenicity: T cells primed with MiHA-pulsed autologous dendritic cells, IFNγ ELISpot and intracellular cytokine staining). Details: T cells from four MiHA-negative individuals primed with autologous dendritic cells pulsed with synthetic MiHA; re-exposed to MiHA vs no peptide or irrelevant peptide.
Format: cell-based, human
Procedure: Determination of the immunogenicity of the identified MiHAs. T cells and monocytes were purified from 100-150×10^6 PBMCs obtained from MiHA-negative individuals using MACS® cell separation columns (Miltenyi Biotec®) or EasySep™ kits (Stemcell Technologies®). Monocyte-derived dendritic cells were generated as previously described (3) and matured with GM-CSF, IL-4, PGE2, TNFα, IL-1β, IL-6 and IFNγ. These dendritic cells were then irradiated at 40 Gy and pulsed with 2 μg/mL of the synthetic MiHA peptide (GLRX3-1^S, WDR27-1^L, MIIP-2^E, or RASSF1-1^S) or an irrelevant peptide (Epstein-Barr virus LMP2^426-434) that was used a negative control. Pulsed or unpulsed dendritic cells were then co-cultured with previously enriched autologous T cells (5×10^5/well) in 48-well plates in advanced RPMI medium supplemented with 10% of human serum, 1% of L-Glutamine and 30 ng/mL of IL-21 at a 1:4 (stimulator:effector) ratio. Supplemented media with IL-7 and IL-15 was added after 3, 5 and 7 days of culture and cells were transferred in 12-well plates and 6-well plates at day 5 and 7, respectively. After 10 days of culture, T cells were harvested to determine antigen reactivity with ELISpot for IFNγ and polyfunctional intracellular cytokine staining. Briefly, ELISpot analysis was performed according to the manufacturer's instructions (MABtech®) and intracellular staining was performed after restimulation with 5 μg/mL of peptide in the presence of Brefeldin A for 4 hours. […] Acquisition was performed with a BD™ LSR II flow cytometer and data were analyzed using Flowlogic™ software (Inivai Technologies®).
As a proof of principle, the immunogenicity of four novel MiHAs was tested: GLRX3-1^S, MIIP-2^E, RASSF1-1^S and WDR27-1^L (FIGS. 3A-3D). […] Read-out of antigen-reactivity was assessed by ELISpot (FIG. 3A) and intracellular staining assays (FIGS. 3B-3D).
With S/AEIEQKIKEY (SEIEQKIKEY) [RASSF1-1^S] the “cytokine production by primed T cells (antigen-reactivity by ELISpot and intracellular staining)” value (“cytokine production by primed T cells” below) was “produced cytokines in a MiHA-specific fashion in all tested donors”. With “FLS/PSANEHL [GLRX3-1^S, synthetic peptide tested for immunogenicity]” the “cytokine production by primed T cells” value was “produced cytokines in a MiHA-specific fashion in all tested donors”. EESAVPE/KRSW (EESAVPERSW) [MIIP-2^E] was tested, and the “cytokine production by primed T cells” value was “produced cytokines in a MiHA-specific fashion in all tested donors”.
